Key:
KRAS G12D = KRAS G12D (Homo sapiens (Human), UniProt P01116, G12D); assay: Inhibitory activity on KRAS G12D nucleotide (GDP-GTP) exchange reaction in vitro (SOS1-dependent, BODIPY FL GDP); type: biochemical; settings: BODIPY FL GDP-bound KRAS G12D, compound 25° C. 1 hour, then SOS1 and GMPPNP 30 minutes
Excerpt: Test Example 1: Evaluation of inhibitory activity of compounds on KRAS G12D nucleotide (GDP-GTP) exchange reaction in vitro
Recombinant KRAS G12D (conjugated N-terminus His6-tag, TEV protease cleavage site and KRAS G12D residues 1-169 (SEQ ID NO: 1), prepared by the method described as below) and cleaved recombinant SOS1 (residues 564-1049(SEQ ID NO: 2), prepared by the method as below) proteins were expressed in E. coli and purified by affinity chromatography.
To prepare the recombinant KRAS G12D, the codon-optimized DNA sequence for the recombinant KRAS G12D (conjugated N-terminus His6-tag, TEV protease cleavage site and KRAS G12D residues 1-169 (SEQ ID NO: 3))was synthesized by GeneArt Technology (Life Technologies, Carlsbad, CA, US). The construct was subcloned into the expression vector pET28a and transformed into Escherichia coli BL21 (DE3) strains (Novagen, Madison, WI, US).
The transformed strain was cultivated in 2 L Luria Broth medium with 25 μg/mL kanamycin at a temperature of 37° C. to a density of 0.6 (OD600), then induced for expression with […] IPTG and further cultivated for 4 h. The cell pellet was resuspended in ice-cold lysis buffer containing 50 mM Tris-HCl (pH 7.5), 200 mM NaCl, and 100 μM TCEP (tris(2-carboxyethyl)phosphine).
After sonication, the disrupted debris was removed by centrifugation. The supernatant was applied on to Ni-NTA affinity gels, and the recombinant human KRAS (G12D) eluted fraction was collected. The buffer of the collected fraction was exchanged to the buffer containing 50 mM Tris-HCl (pH 7.5), 200 mM NaCl, 10% Glycerol, and 5 mM DTT by PD-10 column (GE-Healthcare, Chicago, IL, US).
To prepare the cleaved recombinant SOS1, the codon optimized DNA sequences for the recombinant SOS1 (residues 564-1049 with a conjugated N-terminus His6-tag and TEV protease cleavage site (SEQ ID NO: 4)) was synthesized by GeneArt Technology (Life Technologies). The construct was subcloned into the expression vector pET28a and transformed into Escherichia coli BL21 (DE3) strains (Novagen, Madison, WI, USA).
The transformed strain was cultivated in 2 L Terrific Broth medium with 25 μg/mL kanamycin at a temperature of 37° C. to a density of 0.8 (OD600), then shifted to a temperature of 16° C., induced for expression with […] IPTG, and further cultivated for 16 h. The cell pellet was resuspended in ice-cold lysis buffer containing 50 mM Tris-HCl (pH 7.5), 200 mM NaCl, and 100 μM TCEP.
After sonication, the disrupted debris was removed by centrifugation. The supernatant was applied on to Ni-NTA affinity gels, and the recombinant human SOS1 eluted fraction was collected. Then, His6-tagged TEV protease was added to the collected fraction, dialyzed with the ice-cold lysis buffer for 16 h at a temperature of 4° C., and applied on to Ni-NTA affinity gels. The flow-through fraction containing the tag-cleavaged recombinant human SOS1 was collected. The buffer of the collected fraction was exchanged to the buffer containing 50 mM Tris-HCl (pH 7.5), 200 mM NaCl, 10% Glycerol, and 5 mM DTT by PD-10 column (GE-Healthcare).
To prepare BODIPY FL (fluorescent dye) GDP-bound KRAS G12D protein, 50 μM KRAS G12D protein was incubated with 0.5 mM BODIPY FL GDP in a loading buffer (20 mM Tris-HCl (pH 7.5), 50 mM NaCl, 1 mM DTT and 2.5 mM EDTA) for 1 hour on ice. After the incubation, MgCl2 was added to a final concentration of 10 mM, followed by incubation at room temperature for 30 minutes.
The mixture was allowed to pass through a NAP-5 column to remove free nucleotides and purified BODIPY FL GDP-bound KRAS G12D protein was used for compound evaluation.
For the measurement of the inhibitory activity of compounds on GDP-GTP exchange rate of recombinant KRAS G12D, BODIPY FL GDP-bound KRAS G12D protein was incubated with various concentrations of compound in a reaction buffer (20 mM Tris-HCl (pH 7.5), 100 mM NaCl, 1 mM MgCl2, 2 mM DTT, 0.1% Tween 20) at 25° C. for 1 hour. […]

[1] = system: KRAS-G12D mutant cell line (A-427); assay: Growth inhibition activity on KRAS-G12D mutant cell line (A-427), CellTiter-Glo 3D; type: cell-based; settings: Homo sapiens, 72 h, A-427 cells, 3-day culture with compound, read-out: A427 CTX IC50
Procedure: Test Example 2: A measurement test of growth inhibition activity on KRAS-G12D mutant cell line (A-427) (in vitro) A-427 cells (ATCC, Cat #: HTB-53), which are a KRAS-G12D mutant human lung cancer cell line, were suspended in a 10% fetal bovine serum-containing E-MEM medium (manufactured by Fujifilm Wako Pure Chemical Corporation). The cell suspension was seeded into each well of a 384-well U bottom microplate and cultured in an incubator containing 5% CO2 gas at 37° C. for 1 day.
The compound of the present invention was dissolved in DMSO, and the test compound was diluted with DMSO to give a concentration 500 times the final concentration. The solution of the test compound in DMSO was diluted with the medium used for suspending cells and added to each well of the cell-culture plate to give a DMSO final concentration of 0.2%, followed by culture in an incubator containing 5% CO2 gas at 37° C. for another 3 days. The cell count after a 3-day culture in the presence of the compound was measured using CellTiter-Glo 3D Reagent (manufactured by Promega Corporation).
All wells were added with CellTiter-Glo 3D Reagent and mixed for 10 minutes. 30 minutes after mixing, luminescence was measured by a plate reader. The growth inhibition rate was calculated from the following equation, and the concentration of the test compound at which 50% inhibition was achieved (IC50 (μM)) was determined.
Growth Inhibition Rate(%)=(C−T)/(C)×100
T: the emission intensity in a well into which a test compound was added.
C: the emission intensity in a well into which a test compound was not added.

KRAS G12D, sequence (P01116 other isoform, or with tags, fused parts or gaps G12D (already in the parent)): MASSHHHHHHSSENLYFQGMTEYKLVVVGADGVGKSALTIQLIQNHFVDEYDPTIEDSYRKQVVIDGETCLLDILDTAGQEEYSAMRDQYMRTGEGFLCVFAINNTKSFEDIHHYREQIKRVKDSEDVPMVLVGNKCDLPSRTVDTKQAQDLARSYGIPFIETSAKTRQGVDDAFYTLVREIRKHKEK

Compound	IC50 (KRAS G12D)	IC50 [1]
CN(C)[C@@H]1CC[C@@H]1COc1nc(N2CC3CCC(C2)N3)c2ccc(-c3cc(O)cc4ccccc34)c(F)c2n1 (relative stereo) [Example 17, 4-(4-(3,8-diazabicyclo[3.2.1]octan-3-yl)-2-((cis-2-(dimethylamino)cyclobutyl)methoxy)-8-fluoroquinazolin-7-yl)naphthalen-2-ol]	14.6 nM	1290 nM
CN(C)CC1(COc2nc3c(c(N4CC5CCC(C4)N5)n2)CCN(c2cc(O)cc4cccc(Br)c24)C3)CC1 [Example 1, 4-(4-(3,8-diazabicyclo[3.2.1]octan-3-yl)-2-((1-((dimethylamino)methyl)cyclopropyl)methoxy)-5,8-dihydropyrido[3,4-d]pyrimidin-7(6H)-yl)-5-bromonaphthalen-2-ol]	0.8 nM	1170 nM
Oc1cc(N2CCc3c(nc(OCC4(CN5CC[C@@H](F)C5)CC4)nc3N3CC4CCC(C3)N4)C2)c2c(Br)cccc2c1 [Example 2, 4-(4-(3,8-diazabicyclo[3.2.1]octan-3-yl)-2-((1-(((R)-3-fluoropyrrolidin-1-yl)methyl)cyclopropyl)methoxy)-5,8-dihydropyrido[3,4-d]pyrimidin-7(6H)-yl)-5-bromonaphthalen-2-ol]	1.5 nM	540 nM
Oc1cc(N2CCc3c(nc(OCC4(CN5CCOCC5)CC4)nc3N3CC4CCC(C3)N4)C2)c2c(Br)cccc2c1 [Example 3, 4-(4-(3,8-diazabicyclo[3.2.1]octan-3-yl)-2-((1-(morpholinomethyl)cyclopropyl)methoxy)-5,8-dihydropyrido[3,4-d]pyrimidin-7 (6H)-yl) -5-bromonaphthalen-2-ol]	–	590 nM
Cc1cccc2cc(O)cc(N3CCc4c(nc(OCC5(CN(C)C)CC5)nc4N4CC5CCC(C4)N5)C3)c12 [Example 4, 4-(4-(3,8-diazabicyclo[3.2.1]octan-3-yl)-2-((1-((dimethylamino)methyl)cyclopropyl)methoxy)-5,8-dihydropyrido[3,4-d]pyrimidin-7(6H)-yl)-5-methylnaphthalen-2-ol]	1.5 nM	1170 nM
Cc1cccc2cc(O)cc(N3CCc4c(nc(OCC5(CN6CC[C@@H](F)C6)CC5)nc4N4CC5CCC(C4)N5)C3)c12 [Example 5, 4-(4-(3,8-diazabicyclo[3.2.1]octan-3-yl)-2-((1-(((R)-3-fluoropyrrolidin-1-yl)methyl)cyclopropyl)methoxy)-5,8-dihydropyrido[3,4-d]pyrimidin-7(6H)-yl)-5-methylnaphthalen-2-ol]	6.2 nM	1170 nM
Cc1cccc2cc(O)cc(N3CCc4c(nc(OCC5(CN6CCOCC6)CC5)nc4N4CC5CCC(C4)N5)C3)c12 [Example 6, 4-(4-(3,8-diazabicyclo[3.2.1]octan-3-yl)-2-((1-(morpholinomethyl)cyclopropyl)methoxy)-5,8-dihydropyrido[3,4-d]pyrimidin-7(6H)-yl)-5-methylnaphthalen-2-ol]	3.2 nM	550 nM
CN(C)CC1(COc2nc3c(c(N4CC5CCC(C4)N5)n2)CCN(c2cc(O)cc4cccc(I)c24)C3)CC1 [Example 7, 4-(4-(3,8-diazabicyclo[3.2.1]octan-3-yl)-2-((1-((dimethylamino)methyl)cyclopropyl)methoxy)-5,8-dihydropyrido[3,4-d]pyrimidin-7(6H)-yl)-5-iodonaphthalen-2-ol]	0.7 nM	580 nM
Oc1cc(N2CCc3c(nc(OCC4(CN5CC[C@@H](F)C5)CC4)nc3N3CC4CCC(C3)N4)C2)c2c(I)cccc2c1 [Example 8, 4-(4-(3,8-diazabicyclo[3.2.1]octan-3-yl)-2-((1-(((R)-3-fluoropyrrolidin-1-yl)methyl)cyclopropyl)methoxy)-5,8-dihydropyrido[3,4-d]pyrimidin-7(6H)-yl)-5-iodonaphthalen-2-ol]	0.9 nM	470 nM
Oc1cc(N2CCc3c(nc(OCC4(CN5CCOCC5)CC4)nc3N3CC4CCC(C3)N4)C2)c2c(I)cccc2c1 [Example 9, 4-(4-(3,8-diazabicyclo[3.2.1]octan-3-yl)-2-((1-(morpholinomethyl)cyclopropyl)methoxy)-5,8-dihydropyrido[3,4-d]pyrimidin-7(6H)-yl)-5-iodonaphthalen-2-ol]	0.7 nM	350 nM
C#Cc1cccc2cc(O)cc(C(=O)N3Cc4nc(OCC5(CN6CCOCC6)CC5)nc(N5CC6CCC(C5)N6)c4C3)c12 [Example 10, (4-(3,8-diazabicyclo[3.2.1]octan-3-yl)-2-((1-(morpholinomethyl)cyclopropyl)methoxy)-5,7-dihydro-6H-pyrrolo[3,4-d]pyrimidin-6-yl) (8-ethynyl-3-hydroxynaphthalen-1-yl)methanone]	1.5 nM	6620 nM
C#Cc1cccc2cc(O)cc(C(=O)N3Cc4nc(OCC5(CN6CC[C@@H](F)C6)CC5)nc(N5CC6CCC(C5)N6)c4C3)c12 [Example 11, (4-(3,8-diazabicyclo[3.2.1]octan-3-yl)-2-((1-(((R)-3-fluoropyrrolidin-1-yl)methyl)cyclopropyl)methoxy)-5,7-dihydro-6H-pyrrolo[3,4-d]pyrimidin-6-yl) (8-ethynyl-3-hydroxynaphthalen-1-yl)methanone]	1.4 nM	7850 nM
Ic1cccc2cccc(N3CCc4c(nc(OCC5(CN6CCOCC6)CC5)nc4N4CC5CCC(C4)N5)C3)c12 [Example 25, 4-((1-(((4-(3,8-diazabicyclo[3.2.1]octan-3-yl)-7-(8-iodonaphthalen-1-yl)-5,6,7,8-tetrahydropyrido[3,4-d]pyrimidin-2-yl)oxy)methyl)cyclopropyl)methyl)morpholine]	39.8 nM	–
CN1CCC[C@@H]1COc1nc2c(c(N3CC4CCC(C3)N4)n1)CCN(c1cc(O)cc3cccc(Br)c13)C2 [Example 26, 4-(4-(3,8-diazabicyclo[3.2.1]octan-3-yl)-2-(((R)-1-methylpyrrolidin-2-yl)methoxy)-5,8-dihydropyrido[3,4-d]pyrimidin-7(6H)-yl)-5-bromonaphthalen-2-ol]	19.9 nM	–

— patent US20230348495A1, “A COMPOUND HAVING INHIBITORY ACTIVITY AGAINST KRAS G12D MUTATION” (TAIHO PHARMACEUTICAL CO., LTD., priority 2019, published 2023)
